This note sets out measurements from a melting point compilation (Tetko et al.; mined from patent text by program, amines drawn as free bases though some values may be those of a salt).

A word on the melting point: it is the temperature, or range, at which the solid turns liquid. In turn, `CCc1cc(C(=O)c2ccccc2F)c(-n2c(C)nnc2CNC(=O)c2cc3ccccc3[nH]2)s1` had a melting point of 255 to 256 °C.

The compound `Cc1cccc(/C=C/c2nc(COc3ccc(CCCCn4ccnc4CC(O)CO)cc3)co2)c1` (configuration not stated) registered a melting point of 102 to 104 °C.

`COc1cc2c3ccc(OC)c(OC)c3n(C(=O)CCc3ccccc3)c2cc1OC` gave a melting point of 106 to 108 °C.

The compound `COCCOc1nc2cc(-c3ccc(Cl)cc3)nnc2c2ccccc12` showed a melting point of 148 to 150 °C.

Compound `COCN1c2cc(CCl)ccc2Sc2nccnc21` came in with a melting point of 125 to 126 °C.

`CNC(=O)c1n[nH]cc1NC(=O)c1ccccn1` came in with a melting point of 248 to 249 °C.

As to `COCCn1nc(-c2sc(N)nc2-c2ccccc2)ccc1=O`, the melting point was in the range of 208 to 210 °C.

`CN(C(=O)Cc1[nH]c(=O)c2ccc(Cl)cc2c1-c1ccccc1)c1cc(C(F)(F)F)cc(C(F)(F)F)c1` came in with a melting point of 181 to 182 °C.

As to `CC1CCN(c2occ(C(C)(C)C)c2C#N)C1=O` (configuration not stated), the melting point is 88 to 90 °C.

Compound `CC(C)C1NCC(=O)N1CC(=O)NCC(N)=O` (configuration not stated) yielded a melting point of 65 to 70 °C.

Regarding `O=C1c2ccccc2C2(O)Oc3c(ccc4c3CCCC4)C12O` (configuration not stated), the melting point was 252 to 254 °C.

`COc1cccc(-n2c(-c3sc(Nc4ccccc4)nc3C)nc3ccccc3c2=O)c1`: the melting point was over 275 °C.

On to `Cn1c(=O)n(-c2cc([N+](=O)[O-])c(Cl)cc2F)c(=S)n1C`, for which the melting point is 146 °C.

For the compound `CC(C)(C)c1ccc(NC(=O)c2ccc(C3(C)OCCCO3)cc2)cc1`, the melting point lay in the range of 148 to 149 °C.

For `O=[N+]([O-])c1nccn1CC(O)CN1C2CCCCCCC21` (configuration not stated), the melting point was 120 to 122 °C.

`CCS(=O)(=O)C(=CNc1ccc(NC=C(S(=O)(=O)CC)S(=O)(=O)CC)cc1)S(=O)(=O)CC`: the melting point was 265 to 268 °C.

In the case of `CC12CCC3C(CC(Cl)C4(O)CC=CCC34C)C1CC=C2Br` (configuration not stated), the melting point lay within 125 to 126 °C.

On to `O=C(Nc1cc(OC2CCCC2)c(Cl)cc1F)C1=C(C(=O)NC2CCCCC2)CCCC1`, for which the melting point was 209 to 211 °C.

The compound `CCOC(=O)C1(C(=O)Nc2ccc(Br)cc2C)CCC1` came in with a melting point of 61 to 64 °C.

`CC(C)n1c(=O)n(C)c(=O)c2c(S(=O)CCCO)n(C3Cc4ccccc4C3)cc21` (configuration not stated) returned a melting point of 164 to 165 °C.

Turning to `COc1ccc(CN2C(=O)CC2C(=O)O)c(OC)c1` (configuration not stated), the melting point is 124 to 125 °C.

The compound `CCc1cc([N+](=O)[O-])cc(C=O)c1O` gave a melting point of 93.5 to 94 °C.

The compound `CC(C)n1nc(-c2sc(NC(=O)c3ccc(CN4CCOCC4)cc3)nc2-c2ccccc2)ccc1=O` yielded a melting point of 222 to 224 °C.

On to `C[C@H](CSC(=O)c1ccccc1)C(=O)N1CSC[C@H]1C(=O)OCOC(=O)C(C)(C)C`, for which the melting point was 69 to 69.5 °C.

`CC(CCC(=O)C(C)(C)O)C1CCC2C3CC(O)C4CC(O)CCC4(C)C3CCC12C` (configuration not stated) showed a melting point of 189 to 191 °C.

Regarding `N#Cc1cc([N+](=O)[O-])ccc1Oc1ccc(Cl)cc1Cl`, the melting point is 154 °C.

Take `O=C(O)Cc1ccc(-n2cnc3cnc4ccccc4c32)cc1`: the melting point was 236 to 240 °C.

`O=C1c2ccccc2C(=O)N1CCCCCCN1CCC(c2nc(-c3ccncc3)c(-c3ccc(Cl)c(Cl)c3)[nH]2)CC1` displayed a melting point of 129 to 134 °C.

For `O=C1Cc2cc(F)c(F)cc2N1`, the melting point fell in the range of 187 to 190 °C.

Turning to `CC1(C)CC(c2ccccc2)=NC1=Cc1ccccc1`, the melting point lay in the range of 101 to 103 °C.

Regarding `Clc1ccccc1Oc1c(Cl)ncnc1Cl`, the melting point lay in the range of 76 to 77 °C.

Regarding `CC(C)(C)[Si](C)(C)Oc1ccc(NC(=O)CCl)cc1`, the melting point was 107 to 108 °C.

`Cc1c(Cl)cccc1S(=O)(=O)Nc1ccc2nc(C)n(C)c2c1`: the melting point was 265 to 266 °C.

In turn, `FC(F)Oc1ccc(CN(C(=Nc2ccccc2)N(Cc2ccc(OC(F)F)cc2)C2CCCC2)C2CCCC2)cc1` had a melting point of 86.5 to 88 °C.

The compound `O=C(Nc1ccccn1)c1c(C(F)(F)F)nc(-c2ccccc2)c(-c2ccccc2)c1O` showed a melting point of 208 to 210 °C.

With `O=C1CCOc2c1ccc(O)c2CCCc1ccccc1`, the melting point was in the range of 110 to 112 °C.

`CCN(CC)CCCOc1ccc(-c2nnc(CSCCOc3ccccc3)o2)cc1` came in with a melting point of 27 to 31 °C.

As for `COc1cc(CCNC(C)=O)c(C(=O)Cc2cc(OC)c(OC)cc2[N+](=O)[O-])cc1OC`, the melting point lay in the range of 142 to 144 °C.

For `CCCCC(=O)NC(Cc1ccccc1)C(=O)Nc1c(C(C)C)cccc1C(C)C` (configuration not stated), the melting point was in the range of 237 to 238 °C.

In turn, `O=C1CCCc2[nH]c3cc(F)ccc3c21` yielded a melting point of 231 to 233 °C.

Turning to `O[C@H](CCl)COc1ccc(OCc2ccccc2)cc1`, the melting point was 78 to 80 °C.

Take `CCc1nc(N)nc(N)c1CCCc1cccc(-c2ccccc2)c1`: the melting point is 128 to 133 °C.

`Cc1cc(C)nc(-n2ncnc2N)n1` registered a melting point of 230 to 232 °C.

Consider `O=C(NNC(=O)C(F)(F)C(O)(Cn1cncn1)c1ccc(F)cc1F)c1ccc(F)cc1` (configuration not stated), for which the melting point was in the range of 127 to 130 °C.

The compound `Cc1ccc2c(c1)oc1c(C(=O)NC34CC5CC(CC(C5)C3)C4)nn(-c3ccc(Cl)cc3Cl)c12` yielded a melting point of 210 to 212 °C.

Regarding `CCc1nn2c(Cl)cc(Cl)nc2c1S(=O)(=O)c1ccccc1`, the melting point was 166 to 167 °C.

As for `CCCCOC(=Cn1ccnc1)c1ccc(Cl)cc1Cl`, the melting point fell in the range of 205 to 207 °C.

Compound `COc1ccc(-c2nn(C(C)C)c(=O)c3ccsc23)cc1` displayed a melting point of 124 to 126 °C.

For the compound `O=C1Nc2cccc(-c3cccs3)c2/C1=C/c1ccc[nH]1`, the melting point fell in the range of 213 to 214 °C.

`COc1ccc(CCNC(=O)C(N)=O)cc1OCCCCO` registered a melting point of 47 to 49 °C.

In turn, `CCOC(=O)c1cc(NC(=O)c2ccccc2OC(C)=O)cc(Cl)c1O` gave a melting point of 163 to 166 °C.

`CC1(C)OC(C=Cc2cccnc2)=CC1=O`: the melting point lay in the range of 68 to 70 °C.

On to `O=C1CC(c2cccc(-n3cncn3)c2)=Nc2ccc(-c3ccc(F)cc3)cc2N1`, for which the melting point is 241 to 245 °C.

Consider `CCCc1c(OCc2ccccc2)ccc2c(=O)cc(/C=C/C(=O)OCC)oc12`, for which the melting point stood at 140 °C.

In turn, `CCC(C)(Oc1ccc(OCc2cc(-c3ccc(O)cc3)no2)cc1)C(=O)O` (configuration not stated) had a melting point of 142 to 144 °C.

With `COc1cc(C(C)=O)ccc1OCCCCN1CCC(C(O)(c2ccc(F)cc2)c2ccc(F)cc2)CC1`, the melting point is 104 to 105 °C.

Turning to `Cc1cccc(NC(=O)Nc2ccc(-c3c(C(N)=O)[nH]c4ccccc34)cc2)c1`, the melting point was in the range of 140 to 142 °C.

Turning to `O=C(O)c1ccccc1C(=O)N1Cc2ccccc2Cc2ccccc21`, the melting point lay within 220 to 225 °C.

In the case of `CC(C)CCCC(C)C1CCC2C3CC=C4CC(OC(=O)C(C)(C)COP(=O)(O)OCCBr)CCC4(C)C3CCC12C` (configuration not stated), the melting point came to 98 °C.

For the compound `CC1(C)CCC2=C(O1)c1ccccc1C1(OCC(CO)O1)C2=O` (configuration not stated), the melting point fell in the range of 44 to 46 °C.

Compound `C=C1Oc2cc(OS(=O)(=O)C(F)(F)F)ccc2C(=O)C1c1ccccc1` (configuration not stated) returned a melting point of 133 to 135 °C.

In turn, `CCCn1c(COCC)nc2c(N)nc3ccc(OCCCN4CCCC4=O)cc3c21` showed a melting point of 188 to 190 °C.

For the compound `O=C1c2c(Cl)cccc2-n2cnc(-c3nc(C4CC4)no3)c2[C@@H]2CCN12`, the melting point lay within 140 to 142 °C.

`O=C(O)c1cc(-c2cccc(C(F)(F)F)c2)ns1`: the melting point lay within 162 to 164 °C.

As for `CC(=O)NC1(CCc2ccccc2)CCOC(=O)CC1` (configuration not stated), the melting point fell in the range of 165 to 167 °C.

As for `O=C(O)C1Cc2c(c(Cl)cc3c(-c4c(F)cccc4F)noc23)O1` (configuration not stated), the melting point is 240 to 241 °C.

Consider `CSC(=S)C1(c2ccc3ccccc3n2)CCCS1` (configuration not stated), for which the melting point was 72 °C.

The compound `Nc1cccc2[nH]c3c(c12)CCN(Cc1ccccc1)CC3` came in with a melting point of 164 to 165 °C.

With `O=C(Cc1ccc(Br)cc1)OCc1ccccc1`, the melting point lay in the range of 47.5 to 48 °C.

With `CCCCCc1ccc(CCc2ccc(-c3ccc(OC(F)(F)F)cc3)cc2)cc1`, the melting point came to 60 °C.

Turning to `Cc1cccc(NS(=O)(=O)c2ccc(OCc3nc(-c4ccccc4)oc3C)cc2)c1C(=O)O`, the melting point was in the range of 167 to 170 °C.

`C=C1C(O)C2(O)OCC34C(CC5C(C)=CC(=O)C(O)C5(C)C23)OC(=O)CC14` (configuration not stated) showed a melting point of 235 to 237 °C.

Compound `CCCCOc1cc(C=O)c([N+](=O)[O-])cc1OCc1ccccc1` yielded a melting point of 94 °C.

In turn, `N#CCOS(=O)(=O)c1cccc([N+](=O)[O-])c1` registered a melting point of 66 to 69 °C.

`C=C1NC(=O)OC12CCN(Cc1ccccc1)CC2` returned a melting point of 169 to 170 °C.

`COC(=O)c1cc(-c2nnn(Cc3ccc(OC)cc3)n2)ccc1OC` gave a melting point of 110 to 111 °C.

For the compound `CN1Cc2c(C#Cc3ccc(Cl)cc3)ncn2-c2ccc(F)cc2C1=O`, the melting point fell in the range of 221 to 222 °C.

Turning to `COc1ccc(C(=O)c2sccc2O)cc1`, the melting point lay within 86 to 87 °C.

`N#Cc1ccc(-c2ccc(O)c(C(=O)O)c2)cc1`: the melting point was determined as 227 °C.

The compound `COCCOc1ccc(/C=C/COC(=O)NS(=O)(=O)N2CCCC2)c(Oc2ncc(C(F)(F)F)cc2Cl)c1` returned a melting point of 123 to 124 °C.

Take `N[C@@]1(C(=O)O)C[C@H](NC(=O)Nc2ccc(Cl)cc2)[C@H]2[C@H](C(=O)O)[C@H]21` (relative stereo): the melting point was over 250 °C.

For the compound `Cc1cn(C2CC(N=[N+]=[N-])C(CO)O2)c(=O)nc1N` (configuration not stated), the melting point lay within 85 to 88 °C.

For `COc1cccc(SSc2cccc(OC)c2S(=O)(=O)NC(C)(C)C)c1S(=O)(=O)NC(C)(C)C`, the melting point worked out at 275 °C.

`CCOC(=O)c1ccc(F)c(-c2cccc3cc(CBr)sc23)c1` showed a melting point of 143 to 144 °C.

In turn, `CC1(C)Oc2ccc(OC(F)F)cc2[C@@H](N2CCCCC2=O)[C@@H]1O` (relative stereo) had a melting point of 165 °C.

Compound `O=c1cc(C(F)(F)F)ccn1-c1c(Cl)cc(C(Cl)Cl)cc1Cl` returned a melting point of 176 to 177 °C.

With `Nc1nc2c(c(=O)[nH]1)n(CC(=O)c1ccc(Cl)cc1)c(=O)n2C1OC(CO)C(O)C1O` (configuration not stated), the melting point is over 230 °C.
